Source: article PMC4349960, “[^18F]FE@SUPPY: a suitable PET tracer for the adenosine A3 receptor? An in vivo study in rodents” (European Journal of Nuclear Medicine and Molecular Imaging, 2015)

Legend:
[1] = target: T1, CHO cells expressing the human A3R (CHO-A3) (Homo sapiens, UniProt P0DMS8); experiment: Xenograft mouse model PET (CHO vs CHO-A3 solid tissue masses); format: in vivo, mice
T1 construct: Karl-Norbert Klotz (University of Würzburg); host or cells: CHO cells stably transfected (CHO-A3), grown as subcutaneous masses in NMRI-nu/nu mice
T1 sequence (P0DMS8 1-318): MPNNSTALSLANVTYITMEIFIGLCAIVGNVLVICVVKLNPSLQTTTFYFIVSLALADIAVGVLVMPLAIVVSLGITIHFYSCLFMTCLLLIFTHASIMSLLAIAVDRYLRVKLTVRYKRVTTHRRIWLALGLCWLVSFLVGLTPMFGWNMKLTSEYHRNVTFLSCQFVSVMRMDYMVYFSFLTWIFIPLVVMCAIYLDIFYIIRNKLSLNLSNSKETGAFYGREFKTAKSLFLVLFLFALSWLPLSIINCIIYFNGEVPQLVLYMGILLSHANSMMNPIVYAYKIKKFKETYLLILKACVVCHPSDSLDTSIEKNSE
Experimental: Adult male Sprague-Dawley rats (Him:OFA; Animal Research Institute, Himberg, Austria) weighing 307 ± 35 g were kept under controlled environmental conditions (22 ± 1 °C, 40 – 70 % humidity, 12-h light/dark cycle) with free access to standard laboratory animal diet and tap water. Before being used in the experiments, the animals were allowed to adapt to the new conditions for at least a week. Prior to each experiment, the animals were placed in a chamber containing 2.5 % isoflurane in oxygen. When unconscious, the animals were taken from the chamber and kept under anaesthesia with 1.8 % isoflurane administered via a mask during the whole experiment. Pathogen-free, female NMRI-nu/nu mice (Taconic, Denmark) weighing 28.1 ± 0.8 g were housed under sterile conditions. Mice were injected subcutaneously into both upper flanks with 100 μL of a cell suspension in phosphate-buffered saline containing 10^6 CHO cells (right side) or 10^6 CHO-A3 cells (left side). During the imaging periods of 60 or 90 min (rats or xenografted mice, respectively) the isoflurane level was adjusted depending on the depth of anaesthesia. A humidifier was used to moisten the gas mixture before supplying it to the animal.
Around 17 days after cell inoculation, animals in the xenograft group were positioned in the imaging chamber and a dynamic 90-min PET scan was initiated at the start of [^18F]FE@SUPPY injection (2.21 ± 0.75 MBq dissolved in 100 μl physiological saline, pH 7.4; three animals) via a tail vein under isoflurane anaesthesia (2 %). Additionally, in this group, [^18F]FDG PET was performed 1 day prior to the [^18F]FE@SUPPY experiments. […] In brief, mice were deprived of food for 6 – 8 h before [^18F]FDG injection via a tail vein. Mice had access to drinking water at all times. Body warming was achieved by placing the entire cage on a heating pad kept at 38 °C. Warming was started around 30 min before tracer injection and was continued throughout the uptake and imaging period. [^18F]FDG (6.03 ± 1.31 MBq dissolved in 100 μL physiological saline, pH 7.4; three animals) was injected via a tail vein under isoflurane anaesthesia (2 %). Mice were kept under isoflurane anaesthesia throughout the whole uptake and imaging period. A 10-min static image was acquired at 1 h after [^18F]FDG injection. […]
For all PET scans (rats and xenografted mice), list mode data were acquired with an energy window of 350 – 750 keV (rats) or 250 – 750 keV (mice) and a 6-ns timing window. Before each PET scan, a transmission scan using a ^57Co point source was recorded over 10 min. […] A calibration factor for converting units of microPET images into absolute radioactivity concentration units was first generated by imaging a phantom filled with a known concentration of [^18F]FDG. […]

[2] = design: method as in doi:10.2174/1876388X00901010015; conditions: cited from earlier work

CCSC(=O)c1c(CC)nc(-c2ccccc2)c(C(=O)OCC[18F])c1CC [[^18F]FE@SUPPY, 5-(2-[^18F]fluoroethyl)-2,4-diethyl-3-(ethylsulfanylcarbonyl)-6-phenylpyridine-5-carboxylate]
Xenograft model of human A3R, finding ([1]; compared to [^18F]FDG): Specific uptake in CHO-A3 solid mass (p ≤ 0.03) compared to [^18F]FDG
increased uptake (AUC) in CHO-A3 versus CHO tissue masses ([1]; xenografted NMRI-nu/nu mice, 90-min PET): around 1.42 fold
logP assessment [2]: high lipophilicity
HPLClogD^7.4 ([2]; pH 7.4): 4.04
